Results reported in patent US5162571A, “Phenol derivatives, their production and use” (Takeda Chemical Industries, Ltd., priority 1987, dated 1992).
pIC50: −log10 of the molar value.

What was measured:
[1] = biological target: T1, specific [^3 H] U-46619 binding to guinea pig platelet membrane (Cavia porcellus, UniProt A0A286Y4I8); assay: Inhibition of specific [^3 H] U-46619 binding to guinea pig platelet membrane; conditions: [^3 H] U-46619, 25° C., 30 min; read-out: IC50 (Concentration for 50% inhibition)
T1 construct: Platelet membranes were prepared according to the following procedure; from tissue; host or cells: guinea pig platelet membranes
T1 sequence (A0A286Y4I8 1-347): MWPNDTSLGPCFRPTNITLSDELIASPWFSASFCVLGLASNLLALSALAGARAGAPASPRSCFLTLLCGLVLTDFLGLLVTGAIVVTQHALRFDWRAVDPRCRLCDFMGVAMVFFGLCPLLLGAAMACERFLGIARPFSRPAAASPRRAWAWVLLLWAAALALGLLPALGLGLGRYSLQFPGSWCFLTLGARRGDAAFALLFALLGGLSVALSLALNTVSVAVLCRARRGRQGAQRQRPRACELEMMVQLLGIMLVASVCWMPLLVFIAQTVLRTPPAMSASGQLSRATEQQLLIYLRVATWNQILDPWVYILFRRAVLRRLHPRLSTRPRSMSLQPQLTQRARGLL
Procedure: Inhibition of specific [^3 H] U-46619 binding to guinea pig platelet membrane
Method: Blood from normal guinea pig was collected into 0.315% citrate solution containing aspirin (final concentration 1 mM) and was centrifuged at 3000 r.p.m. for […]. The PRP (platelet rich plasma) was centrifuged at 4800 r.p.m for 10 min. at 4° C. Platelet membranes were prepared according to the following procedure: In order to remove the residual plasma protein, the platelet pellet was washed once with 30 ml of buffer containing 25 mM Tris-HCl/5 mM MgCl2 (pH 7.4) and recentrifuged to pellet the platelets. The platelets were then resuspended in 20 ml of the same buffer, and the cells were disrupted by sonication. The sonication was performed on ice using a Kontes Sonicator (Vineland, N.J.). The platelets were sonicated for a total of 90 sec. with a 15 sec. burst followed by a 15 sec. intermission. The sonicated mixture was centrifuged at 100,000×g for 1 hour and the membrane fraction was suspended in the same buffer. The protein concentration was adjusted to 1 mg/ml.
The binding assay was performed at 25° C. for 30 min. One ml of the resuspended membrane fraction was incubated with […] of [^3 H] U-46619. The incubation mixture was filtered through a glass fiber membrane (GF/C, whatman) to separate the membrane bound from free [^3 H] U-46619. The membranes were quickly washed twice with 5 ml of cold buffer, mixed with 4 ml of ACS scintillation fluid and counted for [^3 H] U-46619.

[2] = test system: lipid peroxides production in rat brain homogenates; assay: Inhibitory action on lipid peroxides production in rat brain homogenates; format: biochemical; conditions: 10^-5 M
Procedure: Inhibitory action on lipid peroxides production in rat brain homogenates
Method: The male SD rat brain tissue was used as 5% homogenate in phosphate-buffered solution. After incubation of the homogenate for 1 hour at 37° C., the amount of lipid peroxides produced was determined by the thiobarbituric acid method according to the description of Ohkawa et al. (Analytical Biochemistry, 95: 551, 1979)
Test compounds were used as a solution of dimethylsulfoxide. The inhibitory action on lipid peroxide production was expressed as a % inhibition as compared with the amount of production in the vehicle group.

[3] = biological target: T2, Thromboxane A2 (TXA2) receptor (Oryctolagus cuniculus, UniProt Q6WQI8); assay: Thromboxane A2 (TXA2) receptor antagonism: inhibitory effect on contraction of rabbit aorta by TXA2-mimics; format: cell-based; conditions: U-44069 (10^-7 M)-induced contraction
T2 construct: contraction by TXA2 mimics U-44069 or U-46619
T2 sequence (Q6WQI8 1-233): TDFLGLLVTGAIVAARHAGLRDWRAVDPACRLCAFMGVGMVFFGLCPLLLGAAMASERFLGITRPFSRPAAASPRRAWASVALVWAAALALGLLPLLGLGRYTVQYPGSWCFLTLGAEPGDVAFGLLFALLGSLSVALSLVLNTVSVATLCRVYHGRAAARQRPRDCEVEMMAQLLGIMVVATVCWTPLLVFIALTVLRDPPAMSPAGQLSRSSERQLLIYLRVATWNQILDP
Procedure: Thromboxane A2 (TXA2) receptor antagonism
Inhibitory effect on contraction of rabbit aorta by thromboxan A2 (TXA2)-mimics
Method: A spiral strip of the rabbit aorta (2-3 mm wide, about 3 cm long) was suspended in Krebs-Henseleit solution under the load of 2 g. The Krebs-Henseleit solution was saturated with a mixed gas of 95%O2 -5%CO2 and warmed at 37° C. Inhibition of the contraction of the vascular strip caused by a TXA2 mimic substance U-44069^1) (10^-7 M) or U-46619^2) (3×10 ^-8 M), by pretreatment with Compound No. 13 30 minutes before was studied.
1) U-44069: (5Z, 9α, 11α, 13E, 15S)-15-hydroxy-9,11-(epoxymethano)-prosta-5,13-dienoic acid (manufacturedby The Upjohn Company in U.S.A.)
2) U-46619: (5Z, 9α, 11α, […], 15S)-15-hydroxy-11,9-(epoxymethano)-prosta-5,13-dienoic acid (manufacturedby Cayman Chemical Company)
In Table 5, "*" represents addition of U-46619.

With `Cc1c(C)c(Br)c(C)c(C(CCCCCC(=O)O)c2ccc(F)cc2)c1O` (centres unmarked) [Compound 12, 7-(5-bromo-2-hydroxy-3,4,6-trimethylphenyl)-7-(4-fluorophenyl)heptanoic acid] the pIC50 [1] was 6.70, the “Inhibition (%)” value [2] was 100% and the inhibition at 10 µM ([3]; 10^-5 M) was 100%. For the same compound, the inhibition at 1 µM ([3]; 10^-6 M) was 79% and the inhibition at 0.1 µM ([3]; 10^-7 M) was 12%.
